Positions count from the first letter of the chain named. pIC50: −log10 of the molar value. Where two headings read alike, the source gives them in different places. Blank lines part the entries; values can stand above or below the molecule they belong to.
What was measured:
[1] = target: FLT3 (ITD)-NPOS (Homo sapiens, UniProt P36888, ITD); test: Reaction Biology Kinase HotSpot radiometric kinase assay; type: biochemical
From the text: (§1) (specific activity approx. 500 cpm/pmol, concentration as required).

[2] = target: T1, FLT3 (R595_E596 ins EY) (Homo sapiens, UniProt P36888, INS595EY); test: as above; type: biochemical
T1 construct: purchased Reaction Biology Corp. (Kinase HotSpot service)
From the text: as §1

[3] = target: T2, FLT3 (ITD)-W51 (Homo sapiens, UniProt P36888, DUP595-601); test: as above; type: biochemical
T2 construct: purchased Reaction Biology Corp. (Kinase HotSpot service)
From the text: as §1

[4] = target: T3, FLT3 (Y591_V592 ins VDFREYEYD) (Homo sapiens, UniProt P36888, INS591VDFREYEYD); test: as above; type: biochemical
T3 construct: purchased Reaction Biology Corp. (Kinase HotSpot service)
From the text: as §1

[5] = target: T4, FLT3 (F594_R595 ins R) (Homo sapiens, UniProt P36888, INS594R); test: as above; type: biochemical
T4 construct: purchased Reaction Biology Corp. (Kinase HotSpot service)
From the text: as §1

[6] = target: T5, TRKC (Homo sapiens, UniProt Q16288); test: Reaction Biology Kinase HotSpot kinase assay; type: biochemical
T5 construct: purchased Reaction Biology Corp. (Kinase HotSpot service)
From the text: as §1

[7] = target: T6, ABL1 (Homo sapiens, UniProt P00519); test: Reaction Biology Kinase HotSpot kinase assay; type: biochemical
T6 construct: purchased Reaction Biology Corp. (Kinase HotSpot service)
From the text: as §1

[8] = target: T7, c-Kit (Homo sapiens, UniProt P10721); test: Reaction Biology Kinase HotSpot kinase assay; type: biochemical
T7 construct: purchased Reaction Biology Corp. (Kinase HotSpot service)
From the text: as §1

[9] = target: T8, CAMKK1 (Homo sapiens, UniProt Q8N5S9); test: Reaction Biology Kinase HotSpot kinase assay; type: biochemical
T8 construct: purchased Reaction Biology Corp. (Kinase HotSpot service)
From the text: as §1

[10] = target: T9, Aurora A (Homo sapiens, UniProt O14965); test: Kinase HotSpot kinase profiling; type: biochemical; conditions: read-out: % Inhibition Aurora A
T9 construct: purchased Reaction Biology Corp. (Kinase HotSpot service)
From the text: as §1

[11] = target: T10, c-MER (Homo sapiens, UniProt Q12866); test: Kinase HotSpot kinase profiling; type: biochemical; conditions: read-out: % Inhibition c-MER
T10 construct: purchased Reaction Biology Corp. (Kinase HotSpot service)
From the text: as §1

[12] = target: T11, AXL (Homo sapiens, UniProt P30530); test: Kinase HotSpot kinase profiling; type: biochemical; conditions: read-out: % Inhibition AXL
T11 construct: purchased Reaction Biology Corp. (Kinase HotSpot service)
From the text: as §1

[13] = target: T12, AKT1 (Homo sapiens, UniProt P31749); test: Kinase HotSpot kinase profiling; type: biochemical; conditions: read-out: % Inhibition AKT1
T12 construct: purchased Reaction Biology Corp. (Kinase HotSpot service)
From the text: as §1

[14] = target: FLT3-ITD (Homo sapiens, UniProt P36888, ITD); test: Kinase HotSpot kinase profiling; type: biochemical
From the text: as §1

[15] = target: T13, ERK1 (Homo sapiens, UniProt P27361); test: Kinase HotSpot kinase profiling; type: biochemical; conditions: read-out: % Inhibition ERK1
T13 construct: purchased Reaction Biology Corp. (Kinase HotSpot service)
From the text: as §1

[16] = target: T14, c-MET (Homo sapiens, UniProt P08581); test: Kinase HotSpot kinase profiling; type: biochemical; conditions: read-out: % Inhibition c-MET
T14 construct: purchased Reaction Biology Corp. (Kinase HotSpot service)
From the text: as §1

[17] = target: T15, FGFR3 (Homo sapiens, UniProt P22607); test: Kinase HotSpot kinase profiling; type: biochemical; conditions: read-out: % Inhibition FGFR3
T15 construct: purchased Reaction Biology Corp. (Kinase HotSpot service)
From the text: as §1

[18] = target: T16, AXL (R499C) (Homo sapiens, UniProt P30530, R499C); test: Kinase HotSpot kinase profiling; type: biochemical; conditions: read-out: % Inhibition AXL (R499C)
T16 construct: purchased Reaction Biology Corp. (Kinase HotSpot service)
From the text: as §1

[19] = target: T17, BRAF (V599E) (Homo sapiens, UniProt P15056, V600E); test: Kinase HotSpot kinase profiling; type: biochemical
T17 construct: purchased Reaction Biology Corp. (Kinase HotSpot service)
From the text: as §1

[20] = target: T18, EGFR (Homo sapiens, UniProt P00533); test: Kinase HotSpot kinase profiling; type: biochemical; conditions: read-out: % Inhibition EGFR
T18 construct: purchased Reaction Biology Corp. (Kinase HotSpot service)
From the text: as §1

[21] = target: T19, ALK (Homo sapiens, UniProt Q9UM73); test: Kinase HotSpot kinase profiling; type: biochemical; conditions: read-out: % Inhibition ALK
T19 construct: purchased Reaction Biology Corp. (Kinase HotSpot service)
From the text: as §1

[22] = target: T20, FYN (Homo sapiens, UniProt P06241); test: Kinase HotSpot kinase profiling; type: biochemical
T20 construct: purchased Reaction Biology Corp. (Kinase HotSpot service)
From the text: as §1

[23] = target: T21, FMS (Homo sapiens, UniProt P07333); test: Kinase HotSpot kinase profiling; type: biochemical; conditions: read-out: % Inhibition FMS
T21 construct: purchased Reaction Biology Corp. (Kinase HotSpot service)
From the text: as §1

[24] = target: T22, c-Src (Homo sapiens, UniProt P12931); test: Kinase HotSpot kinase profiling; type: biochemical; conditions: read-out: % Inhibition c-Src
T22 construct: purchased Reaction Biology Corp. (Kinase HotSpot service)
From the text: as §1

[25] = target: T23, BTK (Homo sapiens, UniProt Q06187); test: Kinase HotSpot kinase profiling; type: biochemical; conditions: read-out: % Inhibition BTK
T23 construct: purchased Reaction Biology Corp. (Kinase HotSpot service)
From the text: as §1

[26] = target: T24, FLT3 (D835Y) (Homo sapiens, UniProt P36888, D835Y); test: Reaction Biology Kinase HotSpot radiometric kinase assay; type: biochemical
T24 construct: purchased Reaction Biology Corp. (Kinase HotSpot service)
T24 sequence (P36888 27-993 D835Y): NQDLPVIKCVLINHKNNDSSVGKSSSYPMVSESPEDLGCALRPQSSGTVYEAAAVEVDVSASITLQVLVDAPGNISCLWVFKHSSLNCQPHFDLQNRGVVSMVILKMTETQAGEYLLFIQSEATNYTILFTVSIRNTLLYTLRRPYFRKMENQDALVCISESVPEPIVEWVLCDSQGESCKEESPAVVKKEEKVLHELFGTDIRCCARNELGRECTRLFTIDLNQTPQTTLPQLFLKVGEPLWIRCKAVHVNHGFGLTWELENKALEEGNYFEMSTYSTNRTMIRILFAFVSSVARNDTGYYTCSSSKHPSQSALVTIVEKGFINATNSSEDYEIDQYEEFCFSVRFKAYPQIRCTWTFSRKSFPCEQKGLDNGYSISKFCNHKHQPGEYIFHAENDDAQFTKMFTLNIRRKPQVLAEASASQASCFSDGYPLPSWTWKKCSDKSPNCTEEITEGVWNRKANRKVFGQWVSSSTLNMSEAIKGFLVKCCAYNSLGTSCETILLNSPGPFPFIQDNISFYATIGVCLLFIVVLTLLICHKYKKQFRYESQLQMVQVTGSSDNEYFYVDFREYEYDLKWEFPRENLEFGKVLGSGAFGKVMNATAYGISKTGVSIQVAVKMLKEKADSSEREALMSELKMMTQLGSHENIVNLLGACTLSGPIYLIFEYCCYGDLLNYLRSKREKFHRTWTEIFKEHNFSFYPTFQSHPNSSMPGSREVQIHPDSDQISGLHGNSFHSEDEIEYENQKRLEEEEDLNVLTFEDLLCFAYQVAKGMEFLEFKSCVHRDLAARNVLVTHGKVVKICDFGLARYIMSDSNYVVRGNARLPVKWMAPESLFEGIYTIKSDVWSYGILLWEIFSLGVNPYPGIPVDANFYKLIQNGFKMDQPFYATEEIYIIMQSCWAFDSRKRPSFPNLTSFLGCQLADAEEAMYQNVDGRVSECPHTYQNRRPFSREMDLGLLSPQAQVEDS
From the text: as §1

[27] = target: T25, FLT3 wild type (Homo sapiens, UniProt P36888); test: as above; type: biochemical; conditions: ATP 10 µM
T25 construct: purchased Reaction Biology Corp. (Kinase HotSpot service)
T25 sequence (P36888 27-993): T24 sequence (P36888 27-993 D835Y) with Y809D
From the text: as §1

SMILES: CCN1CCN(Cc2cc(C(=O)Nc3ccc4[nH]c(-c5ccc6cn[nH]c6c5)nc4c3)cc(C(F)(F)F)c2)CC1 [8r, N-(2-(1H-Indazol-6-yl)-1H-benzo[d]imidazol-5-yl)-3-((4-ethylpiperazin-1-yl)methyl)-5-(trifluoromethyl)benzamide]
- pIC50 [1]: 7.38
- inhibition at 1 µM [1]: 88%
- pIC50 [2]: 7.61
- inhibition at 1 µM ([2]; read-out: % Inhibition FLT3 (R595_E596insEY)): 93.9%
- pIC50 [3]: 7.64
- inhibition at 1 µM ([3]; read-out: % Inhibition FLT3 (ITD)-W51): 93.9%
- pIC50 [4]: 7.31
- inhibition at 1 µM ([4]; read-out: % Inhibition FLT3 (Y591_V592insVDFREYEYD)): 90.9%
- pIC50 [5]: 7.43
- inhibition at 1 µM ([5]; read-out: % Inhibition FLT3 (F594_R595insR)): 92%
- melting point: 265 to 267 °C
- pIC50 [6]: 5.82
- inhibition at 1 µM [6]: > 20%
- pIC50 [7]: 5.51
- inhibition at 1 µM ([7]; read-out: % Inhibition ABL1): 18.4%
- pIC50 [8]: 5.34
- inhibition at 1 µM ([8]; read-out: % Inhibition c-Kit): 19%
- pIC50 [9]: 6.40
- inhibition at 1 µM ([9]; read-out: % Inhibition CAMKK1): > 20%
- inhibition at 1 µM ([9]; read-out: % Inhibition CAMKK1, 8r at 1 µM single dose): 32.5%
- inhibition at 1 µM [10]: 7.47%
- inhibition at 1 µM [11]: 7.3%
- inhibition at 1 µM [12]: 1.88%
- inhibition at 1 µM [13]: 3.09%
- inhibition at 1 µM [14]: 88%
- inhibition at 1 µM [15]: 0%
- inhibition at 1 µM [16]: 6.53%
- inhibition at 1 µM [17]: 0%
- inhibition at 1 µM [18]: 6.64%
- inhibition at 1 µM [19]: 1%
- inhibition at 1 µM [20]: 0.274%
- inhibition at 1 µM [21]: 7.5%
- inhibition at 1 µM [22]: 18%
- inhibition at 1 µM [23]: 0.531%
- inhibition at 1 µM [24]: 1.94%
- inhibition at 1 µM [25]: 17.5%

SMILES: CN1CCC(Oc2ccc(C(=O)Nc3ccc4[nH]c(-c5ccc6cn[nH]c6c5)nc4c3)cc2C(F)(F)F)CC1 [8x, N-(2-(1H-Indazol-6-yl)-1H-benzo[d]imidazol-5-yl)-4-((1-methylpiperidin-4-yl)oxy)-3-(trifluoromethyl)benzamide]
- pIC50 [26]: 6.84
- pIC50 ([27]; read-out: FLT3 IC50): 6.13
- melting point: 293 to 295 °C

SMILES: CCN1CCN(c2cc(C(=O)Nc3ccc4[nH]c(-c5ccc6cn[nH]c6c5)nc4c3)cc(C(F)(F)F)c2)CC1(C)C [8z, N-(2-(1H-Indazol-6-yl)-1H-benzo[d]imidazol-5-yl)-3–(4-ethyl-3,3-dimethylpiperazin-1-yl)-5-(trifluoromethyl)benzamide]
- pIC50 [26]: 7.34
- pIC50 ([27]; read-out: FLT3 IC50): 7.18
- pIC50 ([27]; read-out: FLT3 wild type IC50): 7.18
- melting point: 153 to 154 °C

Results, then the molecule that gave them:

- pIC50 [26]: 8.05
- fold more potent against FLT3-D835Y than against wild-type FLT3 ([26]; ratio of IC50 values): 7- to 12 fold
- pIC50 ([27]; read-out: FLT3 IC50): 6.97
- melting point: 213 to 214 °C
SMILES: CN1CCCC(Nc2cc(C(=O)Nc3ccc4[nH]c(-c5ccc6cn[nH]c6c5)nc4c3)cc(C(F)(F)F)c2)C1 (centres unmarked) [8v, N-(2-(1H-Indazol-6-yl)-1H-benzo[d]imidazol-5-yl)-3-((1-methylpiperidin-3-yl)amino)-5-(trifluoromethyl)benzamide]

- pIC50 [26]: 7.89
- pIC50 ([27]; read-out: FLT3 IC50): 6.54
- melting point: 164 to 166 °C
SMILES: CCN1CCN(Cc2ccc(C(=O)Nc3ccc4[nH]c(-c5ccc6cn[nH]c6c5)nc4c3)cc2C(F)(F)F)CC1 [8w, N-(2-(1H-Indazol-6-yl)-1H-benzo[d]imidazol-5-yl)-4-((4-ethylpiperazin-1-yl)methyl)-3-(trifluoromethyl)benzamide]

- pIC50 [26]: 7.38
- pIC50 ([27]; read-out: FLT3 IC50): 6.84
- melting point: 255 to 257 °C
SMILES: CCN1CCN(Cc2cc(C(=O)Nc3ccc4[nH]c(-c5ccc6cn[nH]c6c5)nc4c3)cc(C(F)(F)F)c2)CC1(C)C [8y, N-(2-(1H-Indazol-6-yl)-1H-benzo[d]imidazol-5-yl)-3-((4-ethyl-3,3-dimethylpiperazin-1-yl)methyl)-5-(trifluoromethyl)benzamide]

Source: publication PMC8788362, “Rational design and synthesis of 2-(1H-indazol-6-yl)-1H-benzo[d]imidazole derivatives as inhibitors targeting FMS-like tyrosine kinase 3 (FLT3) and its mutants” (Journal of Enzyme Inhibition and Medicinal Chemistry, 2022)
